{
  "source": "paper PMC8934569",
  "about": "(Cancer chemotherapy and pharmacology, 2021)",
  "key": {"[1]": {"tested_on": "MX-1 BRCA1 deficient breast cancer model", "settings": "in vivo; cited from earlier work"}, "[2]": {"settings": "cyclophosphamide iv at 450 mg/m^2 and 750 mg/m^2"}, "metastatic breast cancer": {"tested_on": "metastatic breast cancer", "settings": "with veliparib 200 mg BID in 21-day cycles; cited from earlier work"}, "[3]": {"assay": "Drug-related adverse events graded by NCI CTCAE version 4.0", "format": "in vivo, human", "settings": "overall, 80 patients enrolled; given with veliparib"}},
  "data": [
    {"compound": "O=P1(N(CCCl)CCCl)NCCCO1", "note": "(stereo not shown) [cyclophosphamide]", "values": [
      {"measurement": "Tumor effect of single agent", "setting": "[1]", "result": "only delayed tumor growth slightly"},
      {"measurement": "Effect of oral veliparib on cyclophosphamide PK", "setting": "[2]", "result": "not influenced by veliparib"},
      {"measurement": "Recommended phase II dose of cyclophosphamide", "setting": "metastatic breast cancer", "result": 125, "unit": "mg po daily"},
      {"measurement": "Patients with a dose reduction of cyclophosphamide", "setting": "[3]", "result": 3, "unit": "patients"}
    ]}
  ]
}
